The subject of experiment [1] is HepG2 cells. Kind of experiment: Glu/Gal assay: cellular ATP (CellTiter-Glo) after 24 h in glucose or galactose media. The note with it: Homo sapiens, HepG2, 24 h.
In a further experiment the test system is CI. Set-up: method as in PMID 21120605. The note with it: 50 µM, 18 h incubation, CHO cells; cited from earlier work.
In experiment [2] the test system is HepG2 cells. Nature of the experiment: Acute extracellular flux (AEF) assay in intact HepG2 cells (Seahorse XFe96). It counts as cell-based, human. The note with it: Homo sapiens.

The AC50 is the concentration at which the activity in the assay is half-maximal. Consider `CN1c2ccccc2C(NCCCCCCC(=O)O)c2ccc(Cl)cc2S1(=O)=O` (stereo not drawn) [Tianeptine], for which the AC50 is 57.6 µM with HepG2 cells [1] (read-out: Gal AC50); above 100 µM with HepG2 cells [1] (read-out: Glu AC50); above 100 µM in the experiment with HepG2 cells [2] (HepG2, read-out: AC50 ATP Production); above 100 µM with HepG2 cells [2] (HepG2, read-out: AC50 ECAR); above 100 µM in the experiment on HepG2 cells [2] (HepG2, read-out: AC50 OCR); above 100 µM in the experiment on HepG2 cells [2] (HepG2, read-out: AC50 Proton Leak). Besides, the AC50 with HepG2 cells [2] (HepG2, read-out: AC50 Reserve Capacity) turned out to be 21.6 µM. The minimal effective concentration in the experiment on HepG2 cells [1] (read-out: Gal MEC) turned out to be 41.8 µM; in the experiment on HepG2 cells [2] (HepG2, read-out: MEC ATP Production), 40.3 µM; in the experiment on HepG2 cells [2] (HepG2, read-out: MEC OCR), 5.5 µM; in the experiment on HepG2 cells [2] (HepG2, read-out: MEC Reserve Capacity), 0.182 µM. In addition, the “inhibition of CI activity” value in the experiment on CI is around 50%.

These data come from publication PMC10741027, “Risk Assessment of Psychotropic Drugs on Mitochondrial Function Using In Vitro Assays” (Biomedicines, 2023).
